Measurements: US20110262457A1, “MODULATION OF THE IMMUNE RESPONSE” (priority 2008, published 2011)
Entries after “also recorded” stand apart in the source; their conditions may differ.

How the values were obtained:
CD4+Foxp3:GFP- T cells = test: Conversion of CD4+Foxp3:GFP- T cells into Treg with antibodies to CD3 and CD28 and TGFb1; assay type: cell-based; settings: in vitro, anti-CD3/CD28, TGFβ1, FIGS. 1A, 1B
From the text: FIG. 1A is a set of three FACS plots showing conversion of CD4^+Foxp3:GFP^− T cells into CD4^+Foxp3:GFP^+ Treg by stimulation with antibodies to CD3 and CD28 in the presence of TGFb1 with or without FICZ; FIG. 1b; FIG. 1B presents the data in bar graph format. FIG. 1C is a bar graph showing AHR expression in naïve T cells differentiated in vitro into TH1, TH2 or TH17 cells for four days (mean+s.d. of triplicates normalized to actin expression). FIG. 1D is a bar graph showing AHR expression in naïve T cells differentiated in vitro into TH17 for four days with the indicated cytokines (mean+s.d. of triplicates normalized to actin expression). FIG. 1E is a bar graph showing RORγt expression in naïve T cells differentiated into TH17 for four days with TGFβ1 and IL-6 alone or in combination with FICZ (mean+s.d. of triplicates normalized to actin expression). FIG. 1F is a set of nine FACS plots of frequency of IL-17^+ T cells differentiated with TGFβ1 and IL-6 alone or in combination with IL-23 and/or FICZ for four days. FIG. 1G is a bar graph showing IL-17 and FIG. 1H is a pair of bar graphs showing IL-21 (left) and IL-22 (right) levels in supernatants of cultures prepared as in 1E, as measured by ELISA after 4 days of differentiation into. […]

naive T cells = test: In vitro TH17 differentiation of naive T cells with TGFβ1 and IL-6 (with or without IL-23); assay type: cell-based
From the text: FIG. 1A is a set of three FACS plots showing conversion of CD4^+Foxp3:GFP^− T cells into CD4^+Foxp3:GFP^+ Treg by stimulation with antibodies to CD3 and CD28 in the presence of TGFb1 with or without FICZ; FIG. 1b; FIG. 1B presents the data in bar graph format. FIG. 1C is a bar graph showing AHR expression in naïve T cells differentiated in vitro into TH1, TH2 or TH17 cells for four days (mean+s.d. of triplicates normalized to actin expression). FIG. 1D is a bar graph showing AHR expression in naïve T cells differentiated in vitro into TH17 for four days with the indicated cytokines (mean+s.d. of triplicates normalized to actin expression). FIG. 1E is a bar graph showing RORγt expression in naïve T cells differentiated into TH17 for four days with TGFβ1 and IL-6 alone or in combination with FICZ (mean+s.d. of triplicates normalized to actin expression). FIG. 1F is a set of nine FACS plots of frequency of IL-17^+ T cells differentiated with TGFβ1 and IL-6 alone or in combination with IL-23 and/or FICZ for four days. FIG. 1G is a bar graph showing IL-17 and FIG. 1H is a pair of bar graphs showing IL-21 (left) and IL-22 (right) levels in supernatants of cultures prepared as in 1E, as measured by ELISA after 4 days of differentiation into.
Next, the effect of AHR activation by FICZ on in vitro TH17 differentiation was investigated using the TH17 transcription factor RORyt as a marker of TH17 differentiation.

EAE mice [1] = test: EAE model (MOG35-55 peptide in CFA), FICZ treatment; assay type: in vivo
Method: FIG. 2A is a line graph showing development of EAE on FICZ^− or control-treated mice (mean EAE score+s.e.m.)
FIG. 2B is a pair of bar graphs showing cytokine secretion (pg/ml) triggered by MOG35-55 in splenocytes taken from FICZ or control-treated mice; left, IFNgamma, right, IL-17.
FIGS. 2C-2E are each pairs of FACS plots showing the frequency of IFNγ, (2C), IL-17 (2D) or Foxp3 (2E) in splenocytes from FICZ or control-treated mice.
The effects of FICZ were evaluated in vivo using the EAE model described in PCT International Patent Application NO. PCT/US2008/083016, and U.S. Provisional Patent Application Ser. No. 60/989,309, filed on Nov. 20, 2007.
Mice were treated with PBS (control) or […], immunized with MOG35-55 peptide in CFA and monitored for EAE development.

Hep3b cells = test: In vivo model of hepatocellular carcinoma (Hep3b cells in athymic nude mouse reconstituted with splenocytes)
Method: FIGS. 3A and 3B are bar graphs illustrating AFP levels in HCC tumor models treated with FICZ (3A) or FICZ plus HBSAg (3B).
In this example the effects of FICZ administration on Hepatocellular Carcinoma were evaluated in a mouse model of cancer.
The present study used athymic nude mouse (N=7), a type of laboratory mouse that is hairless, lacks a normal thymus gland, and has a defective immune system because of a genetic mutation.
100 ug of frozen FICZ (BIOMOL International, Plymouth Meeting, Pa.) was dissolved in 5 ml of CREMOPHOR™ (polyethoxylated castor oil):ethanol in phosphate buffered saline (PBS), to produce a working solution of 20 ug/ml. 250 ul (5 ug total) of HBs antigen was injected in Treatment Group C. The experiments were carried out as follows:
Tumor sizes were measured in three dimensions using Vernier calipers and tumor volume was computed assuming a spherical geometry with radius equal to one-half the average tumor dimension: TV (mm^3)=d^2×D/2. Tumors were measured two times a week and mice were monitored routinely to evaluate the effects of treatment.
In addition, serum AFP levels were monitored; AFP is an accepted tumor marker of HCC.

EAE mice [2] = test: EAE in C57BL/6 mice treated weekly with AHR-ligand nanoparticles; assay type: in vivo; settings: weekly from day 0, 45 femtomoles of nanoparticles, FIG. 7
Method: FIG. 7 is a line graph showing modulation of EAE by AHR-ligand nanoparticles. EAE was induced in B6 mice (n=5), the mice were treated with nanoparticles weekly starting from day 0, and the animals were followed for signs of EAE.
To investigate the in vivo functionality of AHR-ligand loaded nanoparticles EAE was induced on naïve C57BL/6 mice and treated them, starting at day 0, weekly with 45 femtomoles of nanoparticles.

zebrafish embryos = test: zFoxp3 and IL-17 expression in developing zebrafish embryos; assay type: in vivo, zebrafish (Danio rerio); settings: treatment of developing zebrafish embryos
From the text: FIG. 4D is a bar graph showing the effect of a specific morpholino antisense oligonucleotide against Foxp3 on IL-17 expression in zebrafish.
Zebrafish eggs were collected within 1 hr of spawning, and purified plasmids or morpholino antisense oligonucleotides were microinjected with a fine glass needle connected to an automatic injector. A morpholino oligonucleotide designed to block the translation of zFoxp3 (5′-[…]-3′) and a 5 bases mismatch control oligonucleotide (5′-GTcTTCgAGTAcCATTAAcAAGgAT-3′) were designed and synthesized by Gene Tools (Philomath, Oreg.). Each morpholino nucleotide was injected into the yolk of embryos at one to four cell stages.

AHR = target: T1, AHR (Homo sapiens, UniProt P35869); test: AHR reporter luciferase construct in HEK 293 cells (dual luciferase assay); assay type: cell-based; settings: different concentrations, normalised to Tk-Renilla, FIG. 8
T1 construct: endogenous in cells
T1 sequence (P35869 11-848): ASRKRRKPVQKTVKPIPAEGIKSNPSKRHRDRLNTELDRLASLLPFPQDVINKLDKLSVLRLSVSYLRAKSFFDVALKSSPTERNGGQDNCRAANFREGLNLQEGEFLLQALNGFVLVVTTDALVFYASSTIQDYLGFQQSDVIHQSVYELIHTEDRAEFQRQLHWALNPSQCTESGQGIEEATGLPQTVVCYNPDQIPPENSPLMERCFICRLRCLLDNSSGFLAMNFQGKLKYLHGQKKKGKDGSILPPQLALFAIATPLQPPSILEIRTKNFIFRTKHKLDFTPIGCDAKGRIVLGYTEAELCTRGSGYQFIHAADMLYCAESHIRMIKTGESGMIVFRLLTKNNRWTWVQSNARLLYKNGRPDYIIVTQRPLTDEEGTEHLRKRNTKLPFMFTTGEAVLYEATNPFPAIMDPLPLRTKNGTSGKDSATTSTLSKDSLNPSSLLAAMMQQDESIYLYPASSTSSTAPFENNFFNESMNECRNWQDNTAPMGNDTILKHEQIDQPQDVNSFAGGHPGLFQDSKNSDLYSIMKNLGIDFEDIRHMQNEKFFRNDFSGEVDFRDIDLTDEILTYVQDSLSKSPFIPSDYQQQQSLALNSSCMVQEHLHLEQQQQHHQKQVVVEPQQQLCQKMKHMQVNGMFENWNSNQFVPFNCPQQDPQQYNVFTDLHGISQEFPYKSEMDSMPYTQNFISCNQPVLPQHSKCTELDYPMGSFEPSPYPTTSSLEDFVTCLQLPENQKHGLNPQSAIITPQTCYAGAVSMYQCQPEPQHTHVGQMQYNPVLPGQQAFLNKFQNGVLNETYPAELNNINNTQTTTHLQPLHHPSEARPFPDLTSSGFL
Method: FIG. 8 is a bar graph showing fluorescence in 293 cells transfected with an AHR reporter luciferase construct and a TK-Renilla Luciferase construct for normalization purposes. The cells were incubated with different concentrations of the AHR ligand TCDD and activation of the AHR reporter was followed by monitoring fluorescence from the luciferase.
A construct coding for Foxp3 fused to Renilla luciferase (Ren) was created to provide a simple assay to identify compounds that increase expression of AHR (and thus increase luciferase expression and fluorescence as compared to a control) or that decrease expression of AHR (and thus decrease luciferase expression and fluorescence as compared to a control). HEK 293 cells were transfected as described (Bettelli et al., Proc Natl Acad Sci USA 102, 5138-5143 (2005)) with the AHR reporter luciferase construct and a TK-Renilla Luciferase construct for normalization purposes.
The cells were incubated with different concentrations of the AHR ligand
TCDD and activation of the AHR reporter was assayed using the dual luciferase assay kit ([…].). Tk-Renilla was used for standardization.

T cells = test: Th17 differentiation of T cells with antibodies to CD3 and CD28, TGF-beta and IL-21; IL-17 by real time PCR; assay type: cell-based; settings: 100 nM, compared with FICZ, FIG. 9
Method: FIG. 9 is a bar graph T cells differentiation into Th17 cells by in vitro activation with antibodies to CD3 and CD28 in the presence of TGF-beta and IL-21, in the presence of or not of showing beta-naphthoflavone (bNF) or FICZ (100 nM). IL-17 production was measured by real time PCR.
Briefly, T cells were differentiated into Th17 cells by in vitro activation with antibodies to CD3 and CD28 in the presence of TGF-beta and IL-21 as described (Nature 2008; 454(7202):350-2), in the presence or not of bNF or FICZ (100 nM). IL-17 production was measured by real time PCR.

**Q.** Which results are given for O=Cc1c2c(cc3c1=Nc1ccccc1-3)=Nc1ccccc1-2 [FICZ, 6-formylindolo[3,2-b]carbazole]?
**A.** differentiation of Treg triggered by TGFβ1 (CD4+Foxp3:GFP- T cells): interfered with the differentiation of Treg; expression levels of the TH17 transcription factor RORγt (naive T cells; FICZ alone, four days, FIG. 1E): did not significantly upregulate; TH17 differentiation in vitro (IL-17+ T cells, IL-17, IL-21, IL-22 levels) (naive T cells; with TGFβ1, IL-6 and IL-23, four days, FIGS. 1F-1H): synergized with TGFβ1, IL-6 and IL-23 to drive TH17 differentiation; Mean day of onset (Mean ± SD) (EAE mice [1]; EAE mice): 13.3 ± 1.5; Mean maximum score (mean ± SD) (EAE mice [1]; EAE mice): 2.7 ± 1.8; EAE development (EAE mice [1]; mice, single dose of 1 μg/mouse, FIG. 2A): significant worsening of EAE; also recorded: worsens EAE; frequency of CD4+Foxp3+ Treg (EAE mice [1]; splenocytes from treated EAE mice, FIG. 2E): decrease in the frequency; frequencies of IL-17+ CD4+ and CD4+IFNγ+ T cells (EAE mice [1]; splenocytes from treated EAE mice, FIGS. 2C, 2D): increased frequencies; secretion of IL-17 and IFNγ (EAE mice [1]; splenocytes from treated mice, in vitro stimulation with MOG35-55, FIG. 2B): increased secretion; tumor growth (tumor volume) (Hep3b cells; IP twice a week, caliper measurement): suppressed tumor growth; tumor growth as measured by serum AFP levels (Hep3b cells; seven and 14 days after treatment initiation, FIGS. 3A, 3B): significantly suppresses tumor growth; EAE development (EAE mice [2]): worsened the disease

**Q.** Which results are given for Clc1cc2c(cc1Cl)Oc1cc(Cl)c(Cl)cc1O2 [TCDD, 2,3,7,8-tetrachlorodibenzo-p-dioxin]?
**A.** IL-17 expression (zebrafish embryos): down regulation; zFoxp3 expression (zebrafish embryos): dose-dependent increase; EAE development (EAE mice [2]): complete suppression of EAE; expression of the AHR reporter (AHR): dose-dependent increases

**Q.** O=c1cc(-c2ccccc2)oc2ccc3ccccc3c12 [bNF, beta-naphthoflavone] was tested. Which “T cell differentiation into TH17 cells (IL-17 production by real time PCR)” value (T cells) did it give?
**A.** same effect

**Q.** With Oc1ccc(C=Cc2cc(O)cc(O)c2)cc1 [resveratrol] as the compound, how does the “effect on FICZ synergism in TH17 differentiation” value (naive T cells; AHR antagonist added, FIG. 1I) read?
**A.** blocked
